# Measured values from publication PMC4289246, “Dose-dependent effects of lesogaberan on reflux measures in patients with refractory gastroesophageal reflux disease: a randomized, placebo-controlled study” (BMC Gastroenterology, 2014).
# Tests used:
# [1] = system: patients with GERD who had a partial response to PPI treatment; test: 24-h impedance–pH measurement of reflux variables, crossover vs placebo; format: in vivo, human; conditions: for Difference in geometric mean, number of reflux episodes in supine position / Difference in geometric mean, number of reflux episodes in upright position / Difference in geometric mean, number of weakly acid reflux episodes / Difference in geometric mean, number of acid reflux episodes / Difference in geometric mean, number of mixed gas/liquid reflux episodes / Difference in geometric mean, number of pure liquid reflux episodes / Difference in geometric mean, proportion of time with esophageal pH < 4 / Difference in geometric mean, proportion of time with intragastric pH < 4 / Difference in geometric mean, proximal extent of reflux (cm) / Difference in geometric mean, total number of reflux episodes: relative to placebo; for Difference in geometric mean, number of weakly acid reflux episodes: pH 4.0–6.5; for Difference in geometric mean, number of weakly acid reflux episodes / Difference in geometric mean, number of acid reflux episodes / Difference in geometric mean, number of mixed gas/liquid reflux episodes / Difference in geometric mean, number of pure liquid reflux episodes / Difference in geometric mean, proportion of time with esophageal pH < 4 / Difference in geometric mean, proportion of time with intragastric pH < 4 / Difference in geometric mean, proximal extent of reflux (cm) / Difference in geometric mean, total number of reflux episodes: upright or supine; for Difference in geometric mean, number of acid reflux episodes: pH < 4
# Protocol: This was a randomized, double-blind, placebo-controlled, four-way crossover, phase 2a study. Patients were randomized to receive one of 10 treatment sequences each consisting of placebo and three of the four different lesogaberan doses (30, 90, 120 and 240 mg). These were given on different days, each separated by a 7–28-day washout period. […] Each dose was given twice over a 24-h period in the form of modified-release capsules: one taken 1 h before breakfast after fasting the night before, and the other taken 1 h before dinner. (Note that patients fasted overnight before each study period: no food after 22:00 and no fluids after 24:00.) Treatment with patients’ usual, regular and optimized dose of PPI was continued throughout the study.
# Impedance–pH measurements were taken for 24 h after the first administration of each dose using a Sleuth® multichannel intraluminal impedance ambulatory system (Sandhill Scientific, Inc., Highlands Ranch, CO, USA). This device includes a data logger, impedance–pH amplifiers, and a catheter consisting of two antimony pH sensors (calibrated before and after recordings were taken using standard pH 7 and pH 1 buffers) placed 5 cm above and 10 cm below the lower esophageal sphincter (LES) and eight impedance electrodes placed 2, 4, 6, 8, 10, 14, 16 and 18 cm above the LES. The electrodes are paired to measure impedance at 3, 5, 7, 9, 15 and 17 cm above the LES. The position of the LES was located by a manometric recording before the study medication or placebo was given.
# Impedance–pH readings were analysed by one investigator (JP) using dedicated software (BioVIEW Analysis®, version 5.5.4; Sandhill Scientific Inc.) and were then checked manually. This was performed in a blinded manner and the results were used to determine the number of reflux episodes, defined as a period when impedance decreased to less than 50% of baseline (liquid episode) or increased to more than 150% of baseline (gas episode), propagating […] from the most distal channel. Acid, weakly acid and non-acid reflux episodes were defined as episodes lasting longer than 5 s with a pH of < 4, 4.0–6.5 and > 6.5, respectively. The decision to use a cautious cut-off pH of 6.5 was taken in order to ensure that no measurements near to a pH of 7 would be erroneously categorized as weakly acidic. These definitions have previously been employed for studies of this type. During the 24-h period of ambulatory impedance–pH measurement, patients used a data logger and a diary card to record their meal intake and periods in supine position, as well as any GERD symptoms.
# The effect of each dose of lesogaberan was measured as the proportional difference, relative to placebo, in the geometric mean of the reflux variables assessed over 24 h. The analysis was based on a mixed-effect model with treatment, period and sequence as fixed effects and patient as a random effect. Geometric means and relative differences in geometric means were reported with 95% CIs. A p value of < 0.05 was considered to indicate statistical significance and no corrections for multiple testing were performed. Multiplicity was accounted for by using a step-down sequential procedure comparing lesogaberan doses with placebo, starting at a 240 mg dose and, in the event of rejection of the null hypothesis, comparison of descending doses.
# [2] = system: patients with GERD who had a partial response to PPI treatment; test: Safety and tolerability assessments; format: in vivo, human
# Protocol: Sitting and orthostatic blood pressure and pulse rate were also assessed pre-dose and 2 h after the first dose of lesogaberan or placebo at each treatment visit. Patients ate meals (standardized primarily according to fat content and pH) approximately 1 h after each dose of study medication or placebo, and at the same time points during each study period. Patients were monitored for adverse events from the first dose administration until the follow-up visit 5–10 days after receiving the last dose. The active treatment period for each dose was defined as the time from the first dose of study drug to 24 h after the second dose of study drug in each treatment period. Patients also underwent active questioning to determine whether they experienced syncope, or feeling faint, lightheadedness, dizziness or paraesthesia before study treatment started and after removing the impedance–pH catheter. A 12-lead digital electrocardiogram (ECG) was scheduled at the screening visit, before and 2 h after the first dose of lesogaberan or placebo at each treatment visit, and at the follow-up visit. Blood and urine samples were taken at the pre-entry visit (full laboratory screen), and before and 24 h after the first dose of lesogaberan or placebo at each treatment visit (reduced laboratory screen) to assess clinical chemistry and haematology, and to screen for indications of drug abuse.
# The efficacy evaluation of the different doses of lesogaberan was based on data from all patients not affected by major protocol deviations and violations relevant to the analysis of a specific variable. The safety analysis set comprised all patients who received at least one dose of lesogaberan or placebo, and for whom post-dose data were available.
# [3] = 30 mg twice in 24 h, add-on to PPI
# [4] = 90 mg twice in 24 h, add-on to PPI
# [5] = 120 mg twice in 24 h, add-on to PPI
# [6] = 240 mg twice in 24 h, add-on to PPI
# [7] = 2 h after first dose, 30–240 mg
compound,measurement,setting,value
"NC[C@@H](F)C[PH](=O)O [lesogaberan, (R)-(3-amino-2-fluoropropyl) phosphinic acid]","Difference in geometric mean, number of reflux episodes in supine position",[1]; [3],-37.3%
same,"Difference in geometric mean, number of reflux episodes in upright position",[1]; [3],-25.2%
same,"Difference in geometric mean, number of weakly acid reflux episodes",[1]; [3],-28.3%
same,"Difference in geometric mean, number of acid reflux episodes",[1]; [3],-34.7%
same,"Difference in geometric mean, number of mixed gas/liquid reflux episodes",[1]; [3],-25.0%
same,"Difference in geometric mean, number of pure liquid reflux episodes",[1]; [3],-27.9%
same,"Difference in geometric mean, proportion of time with esophageal pH < 4",[1]; [3],-69.8%
same,"Difference in geometric mean, proportion of time with intragastric pH < 4",[1]; [3],+40.4%
same,"Difference in geometric mean, proximal extent of reflux (cm)",[1]; [3],-39.1%
same,"Difference in geometric mean, total number of reflux episodes",[1]; [3],-26.2%
same,reduction in the mean number of pure liquid reflux episodes relative to placebo,[1]; [4],53.0%
same,reduction in the mean number of total reflux episodes relative to placebo,[1]; [4],approximately 37%
same,"Difference in geometric mean, number of reflux episodes in supine position",[1]; [4],-12.3%
same,"Difference in geometric mean, number of reflux episodes in upright position",[1]; [4],-38.4%
same,"Difference in geometric mean, number of weakly acid reflux episodes",[1]; [4],-31.4%
same,"Difference in geometric mean, number of acid reflux episodes",[1]; [4],-45.5%
same,"Difference in geometric mean, number of mixed gas/liquid reflux episodes",[1]; [4],-28.3%
same,"Difference in geometric mean, number of pure liquid reflux episodes",[1]; [4],-53.0%
same,"Difference in geometric mean, proportion of time with esophageal pH < 4",[1]; [4],-56.1%
same,"Difference in geometric mean, proportion of time with intragastric pH < 4",[1]; [4],+23.7%
same,"Difference in geometric mean, proximal extent of reflux (cm)",[1]; [4],-58.9%
same,"Difference in geometric mean, total number of reflux episodes",[1]; [4],-37.0%
same,reduction in the mean number of pure liquid reflux episodes relative to placebo,[1]; [5],44.1%
same,"Difference in geometric mean, number of reflux episodes in supine position",[1]; [5],-31.2%
same,"Difference in geometric mean, number of reflux episodes in upright position",[1]; [5],-46.1%
same,"Difference in geometric mean, number of weakly acid reflux episodes",[1]; [5],-44.5%
same,"Difference in geometric mean, number of acid reflux episodes",[1]; [5],-57.9%
same,"Difference in geometric mean, number of mixed gas/liquid reflux episodes",[1]; [5],-42.5%
same,"Difference in geometric mean, number of pure liquid reflux episodes",[1]; [5],-44.1%
same,"Difference in geometric mean, proportion of time with esophageal pH < 4",[1]; [5],-65.7%
same,"Difference in geometric mean, proportion of time with intragastric pH < 4",[1]; [5],+3.6%
same,"Difference in geometric mean, proximal extent of reflux (cm)",[1]; [5],-66.3%
same,"Difference in geometric mean, total number of reflux episodes",[1]; [5],-45.0%
same,reduction in the mean number of pure liquid reflux episodes relative to placebo,[1]; [6],51.9%
same,"Difference in geometric mean, number of reflux episodes in supine position",[1]; [6],-69.1%
same,"Difference in geometric mean, number of reflux episodes in upright position",[1]; [6],-50.7%
same,"Difference in geometric mean, number of weakly acid reflux episodes",[1]; [6],-45.1%
same,"Difference in geometric mean, number of acid reflux episodes",[1]; [6],-57.1%
same,"Difference in geometric mean, number of mixed gas/liquid reflux episodes",[1]; [6],-56.7%
same,"Difference in geometric mean, number of pure liquid reflux episodes",[1]; [6],-51.9%
same,"Difference in geometric mean, proportion of time with esophageal pH < 4",[1]; [6],-73.0%
same,"Difference in geometric mean, proportion of time with intragastric pH < 4",[1]; [6],+27.7%
same,"Difference in geometric mean, proximal extent of reflux (cm)",[1]; [6],-63.3%
same,"Difference in geometric mean, total number of reflux episodes",[1]; [6],-52.8%
same,effect on mean number of pure gas reflux episodes relative to placebo,"[1]; 30, 90, 120, 240 mg twice in 24 h, data not shown",No significant effect
same,effect on mean number of non-acid reflux episodes relative to placebo,"[1]; 30, 90, 120, 240 mg twice in 24 h, pH > 6.5, data not shown",No significant effect
same,"reduction relative to placebo in the mean number of reflux episodes, supine position","[1]; highest dose (240 mg) twice in 24 h, add-on to PPI",69.1%
same,adverse events during active dosing,[2]; 90 mg twice in 24 h,one patient reported headache and nausea
same,ECG readings,[2]; 12-lead ECG before and 2 h after first dose,No clinically significant changes in ECG readings
same,adverse events resulting in discontinuation,[2]; 30–240 mg twice in 24 h,no adverse events resulted in discontinuation
same,serious adverse events during active dosing periods,"[2]; 30–240 mg twice in 24 h, safety analysis set n = 27",No serious adverse events were reported
same,blood pressure compared with placebo,[2]; [7],slight decreases in blood pressure
same,pulse rate compared with placebo,[2]; [7],Slight increases in pulse rate
